In assay [1] the test system is Oryctolagus cuniculus. Briefly: Regulation of fertility in rabbit assessed as fetal loss 90 mg/kg. The assay is classed as functional.
Assay [2] deals with Oryctolagus cuniculus. The assay is described as follows: Regulation of fertility in rabbit assessed as fetal loss 60 mg/kg. The format is functional.

Consider `COc1cccc2c1ccc1c(C(=O)O)cc3c(c12)OCO3` [ARISTOLIC ACID], for which the Activity in the assay on Oryctolagus cuniculus [1] and in the assay with Oryctolagus cuniculus [2] was 80% in each case.
